# In ChEMBL document CHEMBL3421558, “Structure activity relationship of substituted 1,5-naphthyridine analogs of oxabicyclooctane-linked novel bacterial topoisomerase inhibitors as broad-spectrum antibacterial agents (Part-4)” (Bioorg Med Chem Lett, 2015):
# System: Staphylococcus aureus
# Test: Antimicrobial activity against Staphylococcus aureus Smith by micro broth dilution or agar based method
# Assay type: functional
# Conditions: Staphylococcus aureus, Smith; read-out: MIC
row,Structure (SMILES),MIC [µg/mL]
1,O=C1COc2ccc(CNC34CCC(CCc5ccnc6cc(C(F)(F)F)cnc56)(CC3)OC4)nc2N1,64
2,COc1ccc2ncc(C(F)(F)F)c(CCC34CCC(NCc5ccc6c(n5)NC(=O)CO6)(CC3)CO4)c2n1,0.03
3,COC(=O)c1ccc2ncc(F)c(CCC34CCC(NCc5ccc6c(n5)NC(=O)CO6)(CC3)CO4)c2n1,0.063
4,COc1ccc2ncc(F)c(C[C@H](O)C34CCC(NCc5ccc6c(n5)NC(=O)CO6)(CC3)CO4)c2n1,0.02
5,COc1cnc2c(CCC34CCC(NCc5ccc6c(n5)NC(=O)CO6)(CC3)CO4)ccnc2c1,32
6,COc1nc2c(CCC34CCC(NCc5ccc6c(n5)NC(=O)CO6)(CC3)CO4)c(F)cnc2cc1C(F)(F)F,8
7,COc1cc(C)c2ncc(F)c(CCC34CCC(NCc5ccc6c(n5)NC(=O)CO6)(CC3)CO4)c2n1,0.016
8,COc1cc2nccc(CCC34CCC(NCc5ccc6c(n5)NC(=O)CO6)(CC3)CO4)c2nc1C#N,8
9,COc1ccc2ncc(C)c(CCC34CCC(NCc5ccc6c(n5)NC(=O)CO6)(CC3)CO4)c2n1,0.06

# System: Pseudomonas aeruginosa
# Test: Antimicrobial activity against Pseudomonas aeruginosa PAO1 by micro broth dilution or agar based method
# Assay type: functional
# Conditions: Pseudomonas aeruginosa, PAO1; read-out: MIC
row,Structure (SMILES),MIC [µg/mL]
1,O=C1COc2ccc(CNC34CCC(CCc5ccnc6cc(C(F)(F)F)cnc56)(CC3)OC4)nc2N1,64
2,COc1ccc2ncc(C(F)(F)F)c(CCC34CCC(NCc5ccc6c(n5)NC(=O)CO6)(CC3)CO4)c2n1,32
3,COC(=O)c1ccc2ncc(F)c(CCC34CCC(NCc5ccc6c(n5)NC(=O)CO6)(CC3)CO4)c2n1,16
4,COc1ccc2ncc(F)c(C[C@H](O)C34CCC(NCc5ccc6c(n5)NC(=O)CO6)(CC3)CO4)c2n1,8
5,COc1cnc2c(CCC34CCC(NCc5ccc6c(n5)NC(=O)CO6)(CC3)CO4)ccnc2c1,64
6,COc1nc2c(CCC34CCC(NCc5ccc6c(n5)NC(=O)CO6)(CC3)CO4)c(F)cnc2cc1C(F)(F)F,8
7,COc1cc(C)c2ncc(F)c(CCC34CCC(NCc5ccc6c(n5)NC(=O)CO6)(CC3)CO4)c2n1,16
8,COc1cc2nccc(CCC34CCC(NCc5ccc6c(n5)NC(=O)CO6)(CC3)CO4)c2nc1C#N,32
9,COc1ccc2ncc(C)c(CCC34CCC(NCc5ccc6c(n5)NC(=O)CO6)(CC3)CO4)c2n1,16

# System: Staphylococcus aureus
# Test: Antimicrobial activity against methicillin-resistant Staphylococcus aureus OIT971 by micro broth dilution or agar based method
# Assay type: functional
# Conditions: not given
row,Structure (SMILES),MIC [µg/mL]
1,O=C1COc2ccc(CNC34CCC(CCc5ccnc6cc(C(F)(F)F)cnc56)(CC3)OC4)nc2N1,64
2,COC(=O)c1ccc2ncc(F)c(CCC34CCC(NCc5ccc6c(n5)NC(=O)CO6)(CC3)CO4)c2n1,0.063
3,COc1ccc2ncc(F)c(C[C@H](O)C34CCC(NCc5ccc6c(n5)NC(=O)CO6)(CC3)CO4)c2n1,0.06
4,COc1cnc2c(CCC34CCC(NCc5ccc6c(n5)NC(=O)CO6)(CC3)CO4)ccnc2c1,8
5,COc1nc2c(CCC34CCC(NCc5ccc6c(n5)NC(=O)CO6)(CC3)CO4)c(F)cnc2cc1C(F)(F)F,8
6,COc1cc(C)c2ncc(F)c(CCC34CCC(NCc5ccc6c(n5)NC(=O)CO6)(CC3)CO4)c2n1,0.008
7,COc1cc2nccc(CCC34CCC(NCc5ccc6c(n5)NC(=O)CO6)(CC3)CO4)c2nc1C#N,2

# System: Enterococcus faecium
# Test: Antimicrobial activity against VanA expressing vancomycin-resistant Enterococcus faecium by micro broth dilution or agar based method
# Assay type: functional
# Conditions: Enterococcus faecium; read-out: MIC
row,Structure (SMILES),MIC [µg/mL]
1,O=C1COc2ccc(CNC34CCC(CCc5ccnc6cc(C(F)(F)F)cnc56)(CC3)OC4)nc2N1,64
2,COc1ccc2ncc(C(F)(F)F)c(CCC34CCC(NCc5ccc6c(n5)NC(=O)CO6)(CC3)CO4)c2n1,1
3,COC(=O)c1ccc2ncc(F)c(CCC34CCC(NCc5ccc6c(n5)NC(=O)CO6)(CC3)CO4)c2n1,16
4,COc1ccc2ncc(F)c(C[C@H](O)C34CCC(NCc5ccc6c(n5)NC(=O)CO6)(CC3)CO4)c2n1,0.5
5,COc1cnc2c(CCC34CCC(NCc5ccc6c(n5)NC(=O)CO6)(CC3)CO4)ccnc2c1,64
6,COc1nc2c(CCC34CCC(NCc5ccc6c(n5)NC(=O)CO6)(CC3)CO4)c(F)cnc2cc1C(F)(F)F,8
7,COc1cc(C)c2ncc(F)c(CCC34CCC(NCc5ccc6c(n5)NC(=O)CO6)(CC3)CO4)c2n1,2
8,COc1cc2nccc(CCC34CCC(NCc5ccc6c(n5)NC(=O)CO6)(CC3)CO4)c2nc1C#N,32
9,COc1ccc2ncc(C)c(CCC34CCC(NCc5ccc6c(n5)NC(=O)CO6)(CC3)CO4)c2n1,1

# System: Escherichia coli
# Test: Antimicrobial activity against Escherichia coli ATCC 25922 by micro broth dilution or agar based method
# Assay type: functional
# Conditions: Escherichia coli, ATCC 25922; read-out: MIC
row,Structure (SMILES),MIC [µg/mL]
1,O=C1COc2ccc(CNC34CCC(CCc5ccnc6cc(C(F)(F)F)cnc56)(CC3)OC4)nc2N1,64
2,COc1ccc2ncc(C(F)(F)F)c(CCC34CCC(NCc5ccc6c(n5)NC(=O)CO6)(CC3)CO4)c2n1,4
3,COC(=O)c1ccc2ncc(F)c(CCC34CCC(NCc5ccc6c(n5)NC(=O)CO6)(CC3)CO4)c2n1,8
4,COc1ccc2ncc(F)c(C[C@H](O)C34CCC(NCc5ccc6c(n5)NC(=O)CO6)(CC3)CO4)c2n1,2
5,COc1cnc2c(CCC34CCC(NCc5ccc6c(n5)NC(=O)CO6)(CC3)CO4)ccnc2c1,64
6,COc1nc2c(CCC34CCC(NCc5ccc6c(n5)NC(=O)CO6)(CC3)CO4)c(F)cnc2cc1C(F)(F)F,8
7,COc1cc(C)c2ncc(F)c(CCC34CCC(NCc5ccc6c(n5)NC(=O)CO6)(CC3)CO4)c2n1,4
8,COc1cc2nccc(CCC34CCC(NCc5ccc6c(n5)NC(=O)CO6)(CC3)CO4)c2nc1C#N,32
9,COc1ccc2ncc(C)c(CCC34CCC(NCc5ccc6c(n5)NC(=O)CO6)(CC3)CO4)c2n1,4

# System: Streptococcus pneumoniae
# Test: Antimicrobial activity against Streptococcus pneumoniae IID553 by micro broth dilution or agar based method
# Assay type: functional
# Conditions: Streptococcus pneumoniae, IID553; read-out: MIC
row,Structure (SMILES),MIC [µg/mL]
1,O=C1COc2ccc(CNC34CCC(CCc5ccnc6cc(C(F)(F)F)cnc56)(CC3)OC4)nc2N1,64
2,COc1ccc2ncc(C(F)(F)F)c(CCC34CCC(NCc5ccc6c(n5)NC(=O)CO6)(CC3)CO4)c2n1,0.25
3,COC(=O)c1ccc2ncc(F)c(CCC34CCC(NCc5ccc6c(n5)NC(=O)CO6)(CC3)CO4)c2n1,16
4,COc1ccc2ncc(F)c(C[C@H](O)C34CCC(NCc5ccc6c(n5)NC(=O)CO6)(CC3)CO4)c2n1,0.05
5,COc1cnc2c(CCC34CCC(NCc5ccc6c(n5)NC(=O)CO6)(CC3)CO4)ccnc2c1,64
6,COc1nc2c(CCC34CCC(NCc5ccc6c(n5)NC(=O)CO6)(CC3)CO4)c(F)cnc2cc1C(F)(F)F,8
7,COc1cc(C)c2ncc(F)c(CCC34CCC(NCc5ccc6c(n5)NC(=O)CO6)(CC3)CO4)c2n1,0.25
8,COc1cc2nccc(CCC34CCC(NCc5ccc6c(n5)NC(=O)CO6)(CC3)CO4)c2nc1C#N,32
9,COc1ccc2ncc(C)c(CCC34CCC(NCc5ccc6c(n5)NC(=O)CO6)(CC3)CO4)c2n1,0.06

# System: Acinetobacter baumannii
# Test: Antimicrobial activity against Acinetobacter baumannii IID876 by micro broth dilution or agar based method
# Assay type: functional
# Conditions: Acinetobacter baumannii, IID876; read-out: MIC
row,Structure (SMILES),MIC [µg/mL]
1,O=C1COc2ccc(CNC34CCC(CCc5ccnc6cc(C(F)(F)F)cnc56)(CC3)OC4)nc2N1,64
2,COc1ccc2ncc(C(F)(F)F)c(CCC34CCC(NCc5ccc6c(n5)NC(=O)CO6)(CC3)CO4)c2n1,2
3,COC(=O)c1ccc2ncc(F)c(CCC34CCC(NCc5ccc6c(n5)NC(=O)CO6)(CC3)CO4)c2n1,2
4,COc1ccc2ncc(F)c(C[C@H](O)C34CCC(NCc5ccc6c(n5)NC(=O)CO6)(CC3)CO4)c2n1,0.5
5,COc1cnc2c(CCC34CCC(NCc5ccc6c(n5)NC(=O)CO6)(CC3)CO4)ccnc2c1,64
6,COc1nc2c(CCC34CCC(NCc5ccc6c(n5)NC(=O)CO6)(CC3)CO4)c(F)cnc2cc1C(F)(F)F,8
7,COc1cc(C)c2ncc(F)c(CCC34CCC(NCc5ccc6c(n5)NC(=O)CO6)(CC3)CO4)c2n1,2
8,COc1cc2nccc(CCC34CCC(NCc5ccc6c(n5)NC(=O)CO6)(CC3)CO4)c2nc1C#N,32
9,COc1ccc2ncc(C)c(CCC34CCC(NCc5ccc6c(n5)NC(=O)CO6)(CC3)CO4)c2n1,2
